Here are results for ten compounds from patent publication US20220259221A1, “CANNABINOID DERIVATIVES” (CANOPY GROWTH CORPORATION, priority 2019, published 2022).

One experiment deals with T1, human CB2 receptor (Homo sapiens, UniProt P34972).
T1 construct: host or cells: CHO-K1 (Chinese hamster ovary) cells, stably transfected; membranes prepared in house
As to the kind of experiment: CB2 radioligand ([3H]CP55,940) competitive binding assay. Particulars: for Selectivity CB2: fold difference in binding between CB1 and CB2, shown in the column of the receptor with higher affinity, 1.00 in both = about the same affinity. Here is the method:
Compounds of the present disclosure were tested for CB1 receptor binding affinity and for CB2 receptor binding affinity. As used herein, “binding affinity” is represented by the IC50 value, which was experimentally determined as described herein. The lower the IC50 value the higher the binding affinity. A compound of the present disclosure may be said to have “binding selectivity” if it has a higher binding affinity for one receptor compared to the other.
The membranes were prepared from CHO-K1 (Chinese hamster ovary) cells stably transfected with the human CB2 receptor (Cat. #ES-111-C; Perkin Elmer, Boston, Mass.). The cells were grown adherently and maintained in Ham's F12 medium containing 10% fetal bovine serum (FBS), penicillin, streptomycin and geneticin (G418) at 37° C. in a humid atmosphere of 5% CO2 following the manufacturer's instructions.
For membrane preparation the cells were washed with PBS and scraped off the plates in cold homogenization buffer (25 mM HEPES (pH 7.4), 2 mM EDTA) containing protease inhibitor cocktail (Sigma Cat. #P8340). The cell suspension was homogenized with a Pro-PK-01200D Polytron Homogenizer (Pro Scientific) and then centrifuged for 30 min at 120,000× g. The supernatant was discarded and the pellet was re-suspended in the homogenization buffer and stored at −80° C. until the time of use.
In this experiment, 3H radiolabeled CP55,940, i.e. [3H]CP55,940 (Perkin Elmer, Boston, Mass.), was used as a radioligand for the CB2 receptor to determine the binding affinity of compounds for the CB2 receptor (Scheme 4; above).
The competition binding experiments (single dose and dose-response) were performed by incubating 0.6 nM of [3H]CP55,940 (specific activity 101 Ci/mmol, Perkin Elmer) and different concentrations of compounds disclosed herein with membranes prepared as above from CHO-K1 cells expressing human CB2 receptor (1 μg of protein/well), 50 mM Tris-HCl (pH 7.4), 5 mM MgCl2, 1 mM CaCl2, and 2 mg/mL BSA.
For the single dose experiments, the compound stocks (usually 10 mM in DMSO) were diluted to working stocks in the binding buffer to give the final compound concentrations of 10 μM and 1 μM. For the dose-response experiments the test compounds were sequentially diluted to provide the desired concentration range for the IC50 determination. In each case the compounds were pre-incubated with the membrane for 20 min, before adding the radioligand.
After incubation with the radioligand for 60 min at 37° C., the incubation was terminated by rapid filtration of assay mixture through MultiScreen®HTS^+ 96-well filter plates (Millipore, Cat. #MSFCNXB), pre-soaked for 60 min with 50 mM Tris-HCl (pH 7.4) containing 0.33% polyethylenimine (PEI). The nonspecific binding (NSB) was determined in the presence of 10 μM unlabelled CP55,940. After drying the filter plate at 50° C. for at least 60 min, the filter-bound radioactivity was determined by scintillation spectrometry using the 1450 MicroBeta Plate Counter (Perkin Elmer, Boston, Mass.). From the dose-response experiments, the IC50 values were determined (see Table 1, CB2 IC50).

Experiment [1] concerns the target T2, human CB1 receptor (Homo sapiens, UniProt P21554). As to the kind of experiment: biochemical. The format is binding. The arrangement: host or cells: CHO-K1 (Chinese hamster ovary) cells, stably transfected; membranes prepared in house. Particulars: for Selectivity CB1: fold difference in binding between CB1 and CB2, shown in the column of the receptor with higher affinity, 1.00 in both = about the same affinity.

Experiment [2] deals with T2, human CB1 receptor. In words: PathHunter β-Arrestin functional assay, CB1 receptor, agonist mode. The format is cell-based. From the text:
(§1) In the PathHunter® β-Arrestin system from DiscoveRx (Eurofins, Fremont, Calif.), a small peptide, the ProLink™ (PK), is fused to the intracellular sequence of a GPCR target, and a complementing peptide, the enzyme acceptor (EA) fragment, is fused to β-arrestin. After binding to its specific ligand, the GPCR target recruits β-arrestin, forcing the complementation of the two β-galactosidase enzyme fragments (EA and PK) to produce a functional β-galactosidase enzyme. The enzyme activity, and thus the amount of ligand bound to the GPCR, is detected with a single addition of a reagent cocktail to lyse the cells and produce a chemiluminescent signal before being analyzed using a traditional plate reader.
(§2) PathHunter® CHO-K1 CNR1 β-Arrestin cells (DiscoverRx, cat. Number 93-0959C2) stably expressing CB1 receptor (CB1R) were grown in Ham's F12 medium containing 10% fetal bovine serum (FBS), 1% penicillin/streptomycin, 300 μg/mL Hygromycin B and 800 μg/mL geneticin (G418) and maintained in 37° C. incubators at 5% CO2. […]
(§3) The incubation was terminated by adding the detection reagent (19 parts of 1% CHAPS, 5 parts Emerald-II and 1 part Galacton-Star), equivalent to 50% of the assay volume to each wells. Plates were incubated for 1 hour in the dark at room temperature, followed by chemiluminescence detection using a microplate reader.
(§4) Data were analysed by generating nonlinear regression curves. […]

For experiment [3], the target named is T2, human CB1 receptor. In words: PathHunter β-Arrestin functional assay, CB1 receptor, antagonist mode. Type of experiment: cell-based.
Source text: as §1, §2, §3, §4

T2 sequence (P21554 whole entry): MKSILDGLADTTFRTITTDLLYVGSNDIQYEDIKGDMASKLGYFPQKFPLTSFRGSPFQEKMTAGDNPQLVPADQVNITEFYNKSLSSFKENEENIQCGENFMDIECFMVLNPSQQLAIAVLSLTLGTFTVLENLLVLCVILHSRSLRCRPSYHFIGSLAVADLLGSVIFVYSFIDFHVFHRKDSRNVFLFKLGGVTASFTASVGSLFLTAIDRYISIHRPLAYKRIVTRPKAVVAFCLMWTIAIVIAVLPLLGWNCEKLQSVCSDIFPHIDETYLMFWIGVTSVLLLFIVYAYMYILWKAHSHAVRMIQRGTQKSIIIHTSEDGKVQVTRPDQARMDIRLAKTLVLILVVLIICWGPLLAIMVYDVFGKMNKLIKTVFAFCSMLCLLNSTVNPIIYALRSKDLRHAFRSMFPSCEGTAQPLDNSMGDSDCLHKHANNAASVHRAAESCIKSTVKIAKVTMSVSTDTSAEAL
T1 sequence (P34972 whole entry): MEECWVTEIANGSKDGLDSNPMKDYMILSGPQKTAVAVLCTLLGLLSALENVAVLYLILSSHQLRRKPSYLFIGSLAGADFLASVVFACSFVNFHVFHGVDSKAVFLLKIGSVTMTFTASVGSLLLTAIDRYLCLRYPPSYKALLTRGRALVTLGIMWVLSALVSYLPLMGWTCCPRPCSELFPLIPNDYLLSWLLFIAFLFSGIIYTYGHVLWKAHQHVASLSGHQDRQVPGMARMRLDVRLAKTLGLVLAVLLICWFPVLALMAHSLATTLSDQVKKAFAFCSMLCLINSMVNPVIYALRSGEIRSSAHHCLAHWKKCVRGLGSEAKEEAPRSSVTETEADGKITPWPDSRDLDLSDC

`CCCCCc1cc2c(c3c1C(=O)OCO3)[C@@H]1C=C(C)CC[C@H]1C(C)(C)O2` [Compound 1b, 8,8,11-trimethyl-5-pentyl-8a,9,10,12a-tetrahydro-4H,8H-benzo[c][1,3]dioxino[4,5-f]chromen-4-one]: at human CB2 receptor, the IC50 was less than 0.5 µM and the “Selectivity CB2” value was 1.80 fold. The compound also returned an IC50 against human CB1 receptor [1] of 0.5 to 0.99 µM.
For `CCCCCc1cc2c(c3c1C(=O)OC(C)(C)O3)[C@@H]1C=C(C)CC[C@H]1C(C)(C)O2` [Compound 2b, 2,2,8,8,11-pentamethyl-5-pentyl-8a,9,10,12a-tetrahydro-4H,8H-benzo[c][1,3]dioxino[4,5-f]chromen-4-one], on human CB2 receptor, the IC50 is less than 0.5 µM and the “Selectivity CB2” value is 1.03 fold. The IC50 at human CB1 receptor [1] is less than 0.5 µM.
As for `CCCCCc1cc2c(c3c1C(=O)OC(c1ccccc1)O3)[C@@H]1C=C(C)CC[C@H]1C(C)(C)O2` (stereo partly shown) [Compound 3b, 8,8,11-trimethyl-5-pentyl-2-phenyl-8a,9,10,12a-tetrahydro-4H,8H-benzo[c][1,3]dioxino[4,5-f]chromen-4-one], the IC50 at human CB2 receptor and against human CB1 receptor [1] was 1 to 4.99 µM each time. For the same compound, on human CB1 receptor [1], the “Selectivity CB1” value is 1.62 fold.
For the compound `CCCCCc1cc2c(c3c1C(=O)OC(CC(C)=O)(c1ccccc1)O3)[C@@H]1C=C(C)CC[C@H]1C(C)(C)O2` (stereo partly shown) [Compound 12b, 8,8,11-trimethyl-2-(2-oxopropyl)-5-pentyl-2-phenyl-8a,9,10,12a-tetrahydro-4H,8H-benzo[c][1,3]dioxino[4,5-f]chromen-4-one], on human CB2 receptor, the IC50 is more than 5 µM and the “Selectivity CB2” value was 1.33 fold. The compound also showed an IC50 at human CB1 receptor [1] of more than 5 µM.
`CCCCCc1cc2c(c3c1C(=O)OC(CC(C)=O)(c1ccc(F)cc1)O3)[C@@H]1C=C(C)CC[C@H]1C(C)(C)O2` (stereo partly shown) [Compound 13b, 2-(4-fluorophenyl)-8,8,11-trimethyl-2-(2-oxopropyl)-5-pentyl-8a,9,10,12a-tetrahydro-4H,8H-benzo[c][1,3]dioxino[4,5-f]chromen-4-one]: on human CB2 receptor, the IC50 lay within 1 to 4.99 µM and the “Selectivity CB2” value is 1.00 fold. At human CB1 receptor [1], the IC50 was in the range of 1 to 4.99 µM and the “Selectivity CB1” value is 1.00 fold.
On human CB2 receptor, `CCCCCc1cc2c(c3c1C(=O)OC(CC(C)=O)O3)[C@@H]1C=C(C)CC[C@H]1C(C)(C)O2` (stereo partly shown) [Compound 14b, 8,8,11-trimethyl-2-(2-oxopropyl)-5-pentyl-8a,9,10,12a-tetrahydro-4H,8H-benzo[c][1,3]dioxino[4,5-f]chromen-4-one] returned an IC50 of 1 to 4.99 µM. Also, at human CB1 receptor [1], the IC50 fell in the range of 1 to 4.99 µM and the “Selectivity CB1” value was found to be 2.69 fold.
`CCCCCc1cc2c(c3c1C(=O)OC(C)O3)[C@@H]1C=C(C)CC[C@H]1C(C)(C)O2` (stereo partly shown) [Compound 16b, 2,8,8,11-tetramethyl-5-pentyl-8a,9,10,12a-tetrahydro-4H,8H-benzo[c][1,3]dioxino[4,5-f]chromen-4-one] had an EC50 on human CB1 receptor [2] of approximately 0.252 µM. The “relative efficacy in comparison to CP55,940” value on human CB1 receptor [2] (agonist mode, normalized to CP55,940) is “about 7%”. Moreover, the IC50 at human CB2 receptor was less than 0.5 µM; against human CB1 receptor [1], less than 0.5 µM; at human CB1 receptor [3], approximately 3 µM. For the same compound, the “Selectivity CB1” value on human CB1 receptor [1] is reported as 1.50 fold. In addition, on human CB1 receptor [3] (antagonist mode, normalized to rimonabant), the “relative inhibition in comparison to rimonabant” value is listed as “about 35%”.
`CCCCCc1cc2c(c3c1C(=O)OC(CC)O3)[C@@H]1C=C(C)CC[C@H]1C(C)(C)O2` (stereo partly shown) [Compound 17b, 2-ethyl-8,8,11-trimethyl-5-pentyl-8a,9,10,12a-tetrahydro-4H,8H-benzo[c][1,3]dioxino[4,5-f]chromen-4-one]: the IC50 on human CB2 receptor is less than 0.5 µM; on human CB1 receptor [1], 1 to 4.99 µM. On human CB2 receptor, the “Selectivity CB2” value was 12.73 fold.
With `CCCCCc1cc2c(c3c1C(=O)OC(CC(C)=O)(c1ccc(OC)cc1)O3)[C@@H]1C=C(C)CC[C@H]1C(C)(C)O2` (stereo partly shown) [Compound 21b, 2-(4-methoxyphenyl)-8,8,11-trimethyl-2-(2-oxopropyl)-5-pentyl-8a,9,10,12a-tetrahydro-4H,8H-benzo[c][1,3]dioxino[4,5-f]chromen-4-one], at human CB2 receptor, the IC50 is 1 to 4.99 µM and the “Selectivity CB2” value is 1.00 fold. On human CB1 receptor [1], the IC50 is 1 to 4.99 µM and the “Selectivity CB1” value turned out to be 1.00 fold.
Consider `CCCCCc1cc2c(c3c1C(=O)OC(CC(C)=O)(c1ccc(Cl)cc1)O3)[C@@H]1C=C(C)CC[C@H]1C(C)(C)O2` (stereo partly shown) [Compound 23b, 2-(4-chlorophenyl)-8,8,11-trimethyl-2-(2-oxopropyl)-5-pentyl-8a,9,10,12a-tetrahydro-4H,8H-benzo[c][1,3]dioxino[4,5-f]chromen-4-one], for which, on human CB2 receptor, the IC50 lay in the range of 1 to 4.99 µM and the “Selectivity CB2” value worked out at 1.00 fold. Further, at human CB1 receptor [1], the IC50 fell in the range of 1 to 4.99 µM and the “Selectivity CB1” value is on record as 1.00 fold.

In general, IC50 refers to the concentration that inhibits the measured activity by half. The low end stands for higher potency, the high end for lower potency. In general, EC50 refers to the concentration at which the effect is half-maximal. Low readings indicate greater potency, high ones weaker potency.
